US20100298299A1, “NON-PEPTIDE DERIVATIVES AS BRADYKININ B1 ANTAGONISTS” (priority 2007, published 2010)

What was measured:
[1] = biological target: T1, human recombinant bradykinin B1 receptor (Homo sapiens, UniProt P46663); assay: Human recombinant bradykinin B1 receptor binding; conditions: CHO cell membranes, [3H]-[Des-Arg10] Kallidin radioligand; read-out: B1 binding
T1 construct: purchased Euroscreen ES-091; host or cells: CHO cells
T1 sequence (P46663 1-353): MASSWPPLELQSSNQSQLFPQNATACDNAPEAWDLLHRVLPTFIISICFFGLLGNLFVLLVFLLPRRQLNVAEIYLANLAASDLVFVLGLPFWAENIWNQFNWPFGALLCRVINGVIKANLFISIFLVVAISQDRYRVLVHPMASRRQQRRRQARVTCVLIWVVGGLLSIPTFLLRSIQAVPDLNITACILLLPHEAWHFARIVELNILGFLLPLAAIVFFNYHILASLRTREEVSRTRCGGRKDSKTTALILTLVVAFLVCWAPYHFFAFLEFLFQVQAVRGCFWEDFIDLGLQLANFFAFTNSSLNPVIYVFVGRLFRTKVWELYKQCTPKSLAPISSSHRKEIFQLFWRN
Experimental: 1. Human Recombinant Bradykinin B1 Receptor Binding
Binding assays were carried out on human recombinant bradykinin) receptors (expressed in CHO cells) according to the Euroscreen Technical Data Sheet (Cat. No.: ES-091). 20 μg protein/tube was incubated with [3,4-prolyl-3,4-^3H(N)]-[Des-Arg^10] Kallidin as radioligand. Non specific binding was determined in the presence of 10 μM Lys-des-Arg^9-Bradykinin. The final incubation volume was 250 μl. Samples were incubated for 15 min. at 25° C. then were rapidly vacuum filtered through GF/B filters presoaked for at least 1 h in 0.5% PEI. Radioactivity was determined by liquid scintillation spectroscopy.

[2] = biological target: T2, recombinant human B1 receptors (Homo sapiens, UniProt P46663); assay: Functional assay: antagonist potency by cytosolic calcium measurement in CHO-B1 cells; type: cell-based; conditions: CHO-B1 cells, inhibition of LysDABK (EC80)-evoked [Ca2+]i elevation; read-out: B1 func.
T2 construct: host or cells: CHO (CHO-B1)
T2 sequence (P46663 1-353): T1 sequence (P46663 1-353)
Experimental: Assessment of Antagonist Potency at B1 and B2 Receptors In Vitro by Measurement of Cytosolic Calcium Ion Concentration with a Plate Reader Fluorimeter in Cells Expressing Recombinant Human B1 or B2 Receptors
Chinese hamster ovary (CHO) cells stably expressing recombinant human B1 (CHO-B1, Euroscreen) or B2 (CHO-B2, Perkin-Elmer) receptors were cultured in Dulbecco's Modified Eagle's Medium (DMEM) containing 10% Fetal Calf Serum (FCS), 100 U/ml penicillin, 0.1 mg/ml streptomycin, 0.25 μg/ml amphotericin B, 1% Minimum Essential Medium Eagle (MEM), non essential amino acid solution, 600 μg/ml G418, 1% pyruvate (for the B2 cell line). Cells were kept at 37° C. in a humidified incubator in an atmosphere of 5% CO2/95% air and were passaged 1:4 three times a week. Cells were plated at 1.5−2.5×10^4 cell/well on standard 96-well microplates, measurements of cytosolic calcium ion concentration ([Ca^2+]i) were carried out 1-2 days after cell plating.
Measurements of [Ca^2+]i were carried out on CHO-B1 and CHO-B2 cells stably expressing human B1 and B2 receptors, respectively. Cells were grown in standard 96-well microplates and before the measurement were loaded with a fluorescent Ca^2+-sensitive dye, fluo-4/AM (2 μM): after removing the culture medium the dye was added to the cells (dissolved in assay buffer: 145 mM NaCl, 5 mM KCl, 2 mM MgCl2, 2 mM CaCl2, 10 mM HEPES, 20 mM D-glucose, 2 mM probenecid, 100 μl/well) and cells were incubated at 37° C. in a humidified incubator in an atmosphere of 5% CO2/95% air for 40-120 min. To stop dye loading cells were washed twice with assay buffer. After washing, various concentrations of the test compounds (diluted in extracellular medium from a DMSO stock solution, final DMSO concentration was <0.1%) or buffer were added to each well depending on the experimental setup. After incubation at 37° C. for 20-25 min. baseline and agonist-evoked changes of [Ca^2+]i were measured column by column with a plate reader fluorimeter (Fluoroskan Ascent, Labsystems). Excitation and detection of emission was carried out from the bottom of the plate. Filters used for Fluo-4: excitation filter—485 nm, emission filter—538 nm. The whole measurement process was performed at 37° C. and was controlled by custom software. Inhibitory potency of the test compounds was assessed by measuring the reduction in the agonist-evoked [Ca^2+]i-elevation in the presence of different concentrations of the compounds. The agonists were LysDABK for CHO-B1, and bradykinin for CHO-B2 cells. Agonists were applied at an EC80 concentration, the EC80-values were derived from daily determined dose-response curves. Fluorescence data were expressed as ΔF/F (fluorescence change normalized to baseline). All treatments on a single plate were measured in multiple wells. Data from all wells with the same treatment were averaged and the average values were used for analysis. Inhibitory potency of a compound at a single concentration point was expressed as percent inhibition of the control agonist response. Sigmoidal concentration-inhibition curves were fitted to the data (derived from at least three independent experiments) and IC50-values were determined as the concentration that produces half of the maximal inhibition caused by the compound.

SMILES | Ki [1] | IC50 [2]
O=C(NCC(=O)N1CCC(N2CCCC2)CC1)c1ccc(S(=O)(=O)Nc2ccccc2Sc2ccccc2)cc1 [Example 3, N-[2-Oxo-2-(4-pyrrolidin-1-yl-piperidin-1-yl)-ethyl]-4-(2-phenylsulfanyl-phenylsulfamoyl)-benzamide] | < 20 nM | < 20 nM
O=C(NCC(=O)N1CCN(CCCN2CCCC2)CC1)c1ccc(S(=O)(=O)Nc2ccccc2Sc2ccccc2)cc1 [Example 5, N-{2-Oxo-2-[4-(3-pyrrolidin-1-yl-propyl)-piperazin-1-yl]-ethyl}-4-(2-phenylsulfanyl-phenylsulfamoyl)-benzamide] | 20 to 100 nM | 20 to 100 nM
CN(C)CCCN1CCN(C(=O)CNC(=O)c2ccc(S(=O)(=O)Nc3ccccc3Sc3ccccc3)cc2)CC1 [Example 6, N-{2-[4-(3-Dimethylamino-propyl)-piperazin-1-yl]-2-oxo-ethyl}-4-(2-phenylsulfanyl-phenylsulfamoyl)-benzamide] | 20 to 100 nM | 20 to 100 nM
O=C(NCC(=O)N1CCCN(CCCN2CCCC2)CC1)c1ccc(S(=O)(=O)Nc2ccccc2Sc2ccccc2)cc1 [Example 7, N-{2-Oxo-2-[4-(3-pyrrolidin-1-yl-propyl)-[1,4]diazepan-1-yl]-ethyl}-4-(2-phenylsulfanyl-phenylsulfamoyl)-benzamide] | 20 to 100 nM | 20 to 100 nM
CN1CCCC(CN2CCN(C(=O)CNC(=O)c3ccc(S(=O)(=O)Nc4ccccc4Sc4ccccc4)cc3)CC2)C1 (centres unmarked) [Example 8, N-{2-[4-(1-Methyl-piperidin-3-ylmethyl)-piperazin-1-yl]-2-oxo-ethyl}-4-(2-phenylsulfanyl-phenylsulfamoyl)-benzamide] | 20 to 100 nM | 20 to 100 nM
C[C@H](NC(=O)c1ccc(S(=O)(=O)Nc2ccccc2Oc2ccccc2)cc1)C(=O)N1CCC(CCN2CCCC2)CC1 [Example 26, (S)—N-{1-Methyl-2-oxo-2-[4-(2-pyrrolidin-1-yl-ethyl)-piperidin-1-yl]-ethyl}-4-(2-phenoxy-phenylsulfamoyl)-benzamide] | < 20 nM | < 20 nM
O=C(N[C@H](CO)C(=O)N1CCC(CCN2CCCC2)CC1)c1ccc(S(=O)(=O)Nc2ccccc2Oc2ccccc2)cc1 [Example 27, (R)—N-{1-Hydroxymethyl-2-oxo-2-[4-(2-pyrrolidin-1-yl-ethyl)-piperidin-1-yl]-ethyl}-4-(2-phenoxy-phenylsulfamoyl)-benzamide] | < 20 nM | < 20 nM
O=C(N[C@H](Cc1ccc(O)cc1)C(=O)N1CCC(O)CC1)c1ccc(S(=O)(=O)Nc2ccccc2Oc2ccccc2)cc1 [Example 29, (R)—N-[1-(4-Hydroxy-benzyl)-2-(4-hydroxy-piperidin-1-yl)-2-oxo-ethyl]-4-(2-phenoxy-phenylsulfamoyl)-benzamide] | < 20 nM | < 20 nM
O=C(N[C@H](Cc1ccc(O)cc1)C(=O)N1CCC(CO)CC1)c1ccc(S(=O)(=O)Nc2ccccc2Oc2ccccc2)cc1 [Example 30, (R)—N-[1-(4-Hydroxy-benzyl)-2-(4-hydroxymethyl-piperidin-1-yl)-2-oxo-ethyl]-4-(2-phenoxy-phenylsulfamoyl)-benzamide] | < 20 nM | < 20 nM
O=C(N[C@@H](Cc1ccc(O)cc1)C(=O)N1CCC(O)CC1)c1ccc(S(=O)(=O)Nc2ccccc2Oc2ccccc2)cc1 [Example 34, (S)—N-[1-(4-Hydroxy-benzyl)-2-(4-hydroxy-piperidin-1-yl)-2-oxo-ethyl]-4-(2-phenoxy-phenylsulfamoyl)-benzamide] | < 20 nM | < 20 nM

The next lines start with the values.

Ki [1] | IC50 [2] | SMILES
< 20 nM | < 20 nM | C[C@@H](NC(=O)c1ccc(S(=O)(=O)Nc2ccccc2Oc2ccccc2)cc1)C(=O)N1CCC(CCN2CCCC2)CC1 [Example 1, (R)—N-{1-Methyl-2-oxo-2-[4-(2-pyrrolidin-1-yl-ethyl)-piperidin-1-yl]-ethyl}-4-(2-phenoxy-phenylsulfamoyl)-benzamide]
< 20 nM | < 20 nM | O=C(NCC(=O)N1CCC(CCN2CCCC2)CC1)c1ccc(S(=O)(=O)Nc2ccccc2Sc2ccccc2)cc1 [Example 2, N-{2-oxo-2-[4-(2-pyrrolidin-1-yl-ethyl)-piperidin-1-yl]-ethyl}-4-(2-phenylsulfanyl-Phenylsulfamoyl)-benzamide]
20 to 100 nM | 20 to 100 nM | CN(C)CCN1CCN(C(=O)CNC(=O)c2ccc(S(=O)(=O)Nc3ccccc3Sc3ccccc3)cc2)CC1 [Example 4, N-{2-[4-(2-Dimethylamino-ethyl)-piperazin-1-yl]-2-oxo-ethyl}-4-(2-phenylsulfanyl-phenylsulfamoyl)-benzamide]
20 to 100 nM | 20 to 100 nM | O=C(NCC(=O)N1CCN(CCN2CCOCC2)CC1)c1ccc(S(=O)(=O)Nc2ccccc2Sc2ccccc2)cc1 [Example 9, N-{2-[4-(2-Morpholin-4-yl-ethyl)-piperazin-1-yl]-2-oxo-ethyl}-4-(2-phenylsulfanyl-phenylsulfamoyl)-benzamide]
< 20 nM | < 20 nM | O=C(N[C@H](Cc1ccc(O)cc1)C(=O)N1CCC(CCN2CCCC2)CC1)c1ccc(S(=O)(=O)Nc2ccccc2Oc2ccccc2)cc1 [Example 31, (R)—N-{1-(4-Hydroxy-benzyl)-2-oxo-2-[4-(2-pyrrolidin-1-yl-ethyl)-piperidin-1-yl]-ethyl}-4-(2-phenoxy-phenylsulfamoyl)-benzamide]
< 20 nM | < 20 nM | O=C(N[C@@H](Cc1ccc(O)cc1)C(=O)N1CCC(CCN2CCCC2)CC1)c1ccc(S(=O)(=O)Nc2ccccc2Oc2ccccc2)cc1 [Example 32, (S)—N-{1-(4-Hydroxy-benzyl)-2-oxo-2-[4-(2-pyrrolidin-1-yl-ethyl)-piperidin-1-yl]-ethyl}-4-(2-phenoxy-phenylsulfamoyl)-benzamide]
< 20 nM | < 20 nM | O=C(N[C@@H](Cc1ccc(O)cc1)C(=O)N1CCC(N2CCCC2)CC1)c1ccc(S(=O)(=O)Nc2ccccc2Oc2ccccc2)cc1 [Example 33, (S)—N-[1-(4-Hydroxy-benzyl)-2-oxo-2-(4-pyrrolidin-1-yl-piperidin-1-yl)-ethyl]-4-(2-phenoxy-phenylsulfamoyl)-benzamide]
< 20 nM | < 20 nM | O=C(N[C@@H](Cc1ccc(O)cc1)C(=O)N1CCC(CCO)CC1)c1ccc(S(=O)(=O)Nc2ccccc2Oc2ccccc2)cc1 [Example 35, (S)—N-{1-(4-Hydroxy-benzyl)-2-[4-(2-hydroxy-ethyl)-piperidin-1-yl]-2-oxo-ethyl}-4-(2-phenoxy-phenylsulfamoyl)-benzamide]
< 20 nM | < 20 nM | CN1CCC(N2CCN(C(=O)[C@H](Cc3ccc(O)cc3)NC(=O)c3ccc(S(=O)(=O)Nc4ccccc4Oc4ccccc4)cc3)CC2)CC1 [Example 37, (S)—N-{1-(4-Hydroxy-benzyl)-2-[4-(1-methyl-piperidin-4-yl)-piperazin-1-yl]-2-oxo-ethyl}-4-(2-phenoxy-phenylsulfamoyl)-benzamide]
